Measured values reported in PMC6872814, “Functional interactions between nitrite reductase and nitric oxide reductase from Paracoccus denitrificans” (Scientific Reports, 2019).

Biological target: T1, cNOR (c-type nitric oxide reductase, NorB and NorC) (Paracoccus denitrificans, UniProt A1B4X6+Q51662)
T1 construct: gene Pden_2483; NorBC two-subunit complex, plasmid pNOREX in E. coli JM109 with pEC86, DDM-solubilised and purified; reconstituted in liposomes for the Km
T1 sequence (A1B4X6 1-462): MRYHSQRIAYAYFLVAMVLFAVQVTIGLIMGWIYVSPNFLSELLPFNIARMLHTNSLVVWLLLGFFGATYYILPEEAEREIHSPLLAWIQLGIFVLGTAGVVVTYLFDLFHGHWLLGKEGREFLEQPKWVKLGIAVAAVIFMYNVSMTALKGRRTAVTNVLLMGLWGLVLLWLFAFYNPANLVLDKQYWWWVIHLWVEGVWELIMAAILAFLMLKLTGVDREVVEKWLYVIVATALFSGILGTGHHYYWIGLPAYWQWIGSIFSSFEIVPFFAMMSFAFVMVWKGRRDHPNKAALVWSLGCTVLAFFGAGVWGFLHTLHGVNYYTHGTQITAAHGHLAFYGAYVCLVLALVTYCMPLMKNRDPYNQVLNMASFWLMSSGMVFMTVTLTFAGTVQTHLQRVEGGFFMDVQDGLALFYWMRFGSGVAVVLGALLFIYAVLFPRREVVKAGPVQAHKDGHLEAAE
T1 sequence (Q51662 2-150): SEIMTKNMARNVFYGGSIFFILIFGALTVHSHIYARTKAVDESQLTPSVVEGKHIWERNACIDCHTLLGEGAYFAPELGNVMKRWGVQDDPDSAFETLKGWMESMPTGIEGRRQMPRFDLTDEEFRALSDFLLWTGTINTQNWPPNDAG
Assay: Clark-type NO electrode, inhibition of NO reduction, data not shown
Assay type: biochemical
Details: inhibitor at high (mM) concentrations; 50 mM HEPES pH 7.0, 50 mM KCl

`O=NO` [nitrite] was tested, and the “Clark-type NO electrode, inhibition of NO reduction, data not shown” value was “For nitrite, we see that it can inhibit cNOR activity, but only at high (mM)”.
